In US8609362B2, “G-proteins” (Givaudan SA, priority 2002, dated 2013):
Where two headings read alike, the source gives them in different places. Each block holds one compound with its values, some of them ahead of it. Residues, ends and D or L forms follow the SMILES beside them.

Assays:
[1] = system: sham transfected (control); assay: Fluo-4 calcium assay, sham transfected control cells of Table 1; format: cell-based
Experimental: (§1) At day 0, cells stably expressing the G-protein are plated in black, clear-bottom 96-well plate at 20,000 cells per well and grown overnight in selective growth media. On day 1, the media is changed to an antibiotic-free growth media and the cells are transfected using 300 ng GPCR DNA and 0.6 μl of Lipofectamine 2000 (Invitrogen). The cells are grown overnight and processed the next day using the Fluo-4 calcium assay conditions described in Example 2 above.

human TAS2R16 = molecular target: T1, human TAS2R16 (Homo sapiens, UniProt Q9NYV7); assay: Fluo-4 calcium assay, cells transiently transfected with human TAS2R16 and expressing a promiscuous G-protein; format: cell-based; conditions: ligand 5 mM; for fluorescent signal with Gα16-gustducin 44, times stronger than reference chimeric G-protein Gα16-z44 / fluorescent signal with Gα16-gustducin 44, times stronger than wild-type Gα16: HEK293T cells, Flexstation; for fluorescent signal with Gα16-gustducin 44, times stronger than reference chimeric G-protein Gα16-z44 / fluorescent signal with Gα16-gustducin 44, times stronger than wild-type Gα16 / fluorescent signal (in words): TAS2R16; for increase in mean fluorescence over baseline following ligand addition: human TAS2R16
T1 construct: expressed in transfected cells; host or cells: HEK293T cells stably expressing Gα16gustducin44, Gα16 or Gα16z44
T1 sequence (Q9NYV7 1-291): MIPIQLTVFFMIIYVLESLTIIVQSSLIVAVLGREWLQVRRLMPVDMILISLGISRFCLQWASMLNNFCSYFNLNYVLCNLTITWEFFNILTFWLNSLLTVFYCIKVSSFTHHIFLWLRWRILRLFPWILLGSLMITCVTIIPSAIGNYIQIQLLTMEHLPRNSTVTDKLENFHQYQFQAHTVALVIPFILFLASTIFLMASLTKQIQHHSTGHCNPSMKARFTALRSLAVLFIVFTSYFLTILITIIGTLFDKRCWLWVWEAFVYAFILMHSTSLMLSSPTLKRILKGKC
Experimental: The protocol is described in “G-protein coupled receptors (Signal Transduction Series)”; Editors: Tatsuya Haga and Gabriel Berstein, 1st ed., 424 pp.CRC Press—Boca Raton, Fla.; September 1999, and may be summarised as follows: • 1. Day 0: 96-well plates are seeded with 20K cells per well and maintained at 37 degrees C. overnight in nutritive growth media. • 2. Day 1: Cells are transfected using 300 ng of GPCR DNA and 0.6 μl of Lipofectamine 2000 (Invitrogen) per well. Transfected cells are and maintained at 37 degrees C. overnight in nutritive growth media. • 3.
as §1

[2] = system: G-protein only (control w/o tetracycline); assay: Fluo-4 calcium assay, G-protein only control w/o tetracycline (TAS2R38 cell line); format: cell-based; conditions: Gα16gustducin44, ligand 250 μM
From the text: (§2) The following results were obtained:

human TAS2R38 = molecular target: T2, human TAS2R38 (Homo sapiens, UniProt P59533); assay: Fluo-4 calcium assay, tetracycline-inducible cells stably expressing human TAS2R38 and G16gust44; format: cell-based; conditions: ligand 250 μM; for fluorescence signal (in words): HEK293 T-Rex cells, TAS2R38, G16-gustducin 44
T2 construct: expressed in transfected cells
T2 sequence (P59533 1-333): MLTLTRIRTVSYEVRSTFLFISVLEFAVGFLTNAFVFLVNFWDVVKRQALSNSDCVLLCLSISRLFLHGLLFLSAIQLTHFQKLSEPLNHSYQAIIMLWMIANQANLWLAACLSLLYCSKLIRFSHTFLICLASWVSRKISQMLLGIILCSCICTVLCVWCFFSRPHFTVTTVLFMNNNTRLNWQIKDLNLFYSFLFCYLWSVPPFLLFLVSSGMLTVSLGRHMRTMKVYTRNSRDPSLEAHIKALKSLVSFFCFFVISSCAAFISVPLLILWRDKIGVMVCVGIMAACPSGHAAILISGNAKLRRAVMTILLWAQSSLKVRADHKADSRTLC
From the text: as §2

[3] = system: sham transfected (control); assay: Fluo-4 calcium assay, sham transfected control cells of Table 7; format: cell-based
Experimental: (§3) At day 0, cells stably expressing the G-protein are plated in a 6-well plate at a density of 800,000-950,000 cells per well and grown overnight in selective growth media. On day 1, the media is changed to an antibiotic-free growth media and the cells are transfected using 2 μg of T1 R2 and 2 μg of T1 R3 cDNA and 10 μl of Lipofectamine 2000 (Invitrogen). The cells are maintained overnight in antibiotic-free growth media. On day 2, the cells are replated into a black, clear-bottom 96 well plate at 20,000 cells per well and grown overnight. The morning of the calcium assay, the media is replaced with low glucose media supplemented with Glutamax and dialyzed FBS to minimize receptor desensitization by sugars and glutamate. The cells are further incubated in this media for 6 hours at 37 degrees C. At the end of this period, the cells are processed for the calcium assay according to conditions described above.
(§4) Following the methodology as described in Example 5 the following results were obtained: […]

human TAS1R2/TAS1R3 = molecular target: T3, human TAS1R2/TAS1R3 (Homo sapiens, UniProt Q7RTX0+Q8TE23); assay: Fluo-4 calcium assay, cells transfected with human sweet receptor TAS1R2/TAS1R3 and expressing a promiscuous G-protein; format: cell-based; conditions: for fluorescence signal with Gα16-gustducin 44, times stronger than wild-type Gα16: HEK293T cells; for fluorescence signal with Gα16-gustducin 44, times stronger than wild-type Gα16 / fluorescence signal (in words): ligand 2.5 mM
T3 construct: expressed in transfected cells; host or cells: HEK293T cells stably expressing the G-protein, co-transfected with T1R2 and T1R3 cDNA
T3 sequence (Q8TE23 20-839): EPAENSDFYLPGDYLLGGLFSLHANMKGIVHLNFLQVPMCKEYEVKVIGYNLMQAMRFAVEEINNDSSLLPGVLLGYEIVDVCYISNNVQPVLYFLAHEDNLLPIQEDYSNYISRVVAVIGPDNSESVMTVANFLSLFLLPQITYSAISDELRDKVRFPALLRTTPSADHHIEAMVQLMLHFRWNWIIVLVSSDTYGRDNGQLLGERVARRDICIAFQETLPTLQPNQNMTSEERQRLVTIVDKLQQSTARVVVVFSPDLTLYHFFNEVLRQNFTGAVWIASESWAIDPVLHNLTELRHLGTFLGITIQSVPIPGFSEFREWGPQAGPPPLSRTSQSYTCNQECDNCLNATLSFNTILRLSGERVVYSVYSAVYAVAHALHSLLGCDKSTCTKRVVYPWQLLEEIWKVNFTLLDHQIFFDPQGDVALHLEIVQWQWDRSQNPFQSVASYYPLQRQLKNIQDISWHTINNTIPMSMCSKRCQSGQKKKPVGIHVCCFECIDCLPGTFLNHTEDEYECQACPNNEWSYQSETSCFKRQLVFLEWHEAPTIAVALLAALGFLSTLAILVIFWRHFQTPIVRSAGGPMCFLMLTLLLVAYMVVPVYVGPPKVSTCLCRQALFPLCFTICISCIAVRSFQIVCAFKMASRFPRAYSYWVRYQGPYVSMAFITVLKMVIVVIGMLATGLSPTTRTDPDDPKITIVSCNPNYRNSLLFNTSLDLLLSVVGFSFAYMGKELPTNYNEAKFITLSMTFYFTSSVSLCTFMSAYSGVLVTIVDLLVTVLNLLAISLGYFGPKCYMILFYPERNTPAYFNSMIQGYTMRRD
T3 sequence (Q7RTX0 21-852): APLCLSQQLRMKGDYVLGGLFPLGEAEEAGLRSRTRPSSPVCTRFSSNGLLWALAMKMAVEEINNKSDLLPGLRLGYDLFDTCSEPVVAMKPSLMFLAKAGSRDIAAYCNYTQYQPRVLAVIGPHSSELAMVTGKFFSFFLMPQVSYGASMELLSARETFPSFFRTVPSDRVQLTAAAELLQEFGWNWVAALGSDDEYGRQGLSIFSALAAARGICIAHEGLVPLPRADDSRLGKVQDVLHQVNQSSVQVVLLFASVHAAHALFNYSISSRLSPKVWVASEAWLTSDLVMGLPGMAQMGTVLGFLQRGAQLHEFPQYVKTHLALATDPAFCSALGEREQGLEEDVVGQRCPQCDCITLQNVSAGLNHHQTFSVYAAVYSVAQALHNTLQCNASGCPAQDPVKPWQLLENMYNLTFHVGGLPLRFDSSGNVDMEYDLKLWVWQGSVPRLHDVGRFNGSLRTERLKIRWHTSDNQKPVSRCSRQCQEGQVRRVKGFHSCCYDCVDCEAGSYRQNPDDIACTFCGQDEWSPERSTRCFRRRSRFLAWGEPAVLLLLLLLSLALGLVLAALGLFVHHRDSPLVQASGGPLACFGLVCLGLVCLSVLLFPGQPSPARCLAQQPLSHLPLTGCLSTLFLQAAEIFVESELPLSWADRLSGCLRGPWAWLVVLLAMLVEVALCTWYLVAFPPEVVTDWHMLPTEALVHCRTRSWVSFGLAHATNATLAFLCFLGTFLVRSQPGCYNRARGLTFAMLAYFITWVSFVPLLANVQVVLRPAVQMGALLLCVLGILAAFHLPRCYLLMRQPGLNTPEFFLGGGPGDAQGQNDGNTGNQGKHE
Experimental: as §3, §4

[4] = system: G-protein only (control w/o tetracycline); conditions: Gα16gustducin44, ligand 250 μM
Experimental: All assays are performed using black, clear-bottom 96-well plates that have been seeded the day before with 20K transfected cells per well and have been maintained at 37 degrees C. overnight in appropriate growth media. At the time of the assay, the growth media is discarded and cells are incubated for 1 hour (at room temperature in the dark) with 75 μl of a calcium assay solution consisting of 1.5 μM Fluo-4 AM (Molecular Probes) and 2.5 mM probenicid (Sigma-Aldrich) dissolved in a Hanks balanced salts solution (HBSS) that has been supplemented with 10 mM Hepes, 200 μM calcium chloride and 0.1% bovine serum albumin, pH 7.4 at 37 degrees C. […] For assay reading, the plate is placed in a fluorescent microplate reader, for example the Flexstation (Molecular Devices), and receptor activation is initiated following addition of 20 μl of a 10× concentrated ligand stock solution. Fluorescence is continuously monitored for 15 seconds prior to ligand addition and for 45-75 seconds after ligand addition. Receptor activation levels are defined as by the two following equations: % Activation=(Maximum fluorescence−baseline fluorescence/baseline fluorescence)*100 or Fluorescence Increase=Maximum Fluorescence—baseline fluorescence, where baseline fluorescence represents the average fluorescence levels prior to ligand addition. […]

[5] = system: sham transfected (control); assay: Fluo-4 calcium assay, sham transfected control cells of Table 2; format: cell-based
Experimental: as §1, §4

mouse T2R5 = molecular target: T4, mouse T2R5 (Mus musculus, UniProt Q9JKT4); assay: Fluo-4 calcium assay, cells transfected with mouse bitter receptor T2R5 and expressing a promiscuous G-protein; format: cell-based; conditions: for increase in mean fluorescence over baseline following ligand addition: ligand 10 μM
T4 construct: expressed in transfected cells; host or cells: HEK293T cells stably expressing Gα16gustducin44 or Gα16
T4 sequence (Q9JKT4 1-300): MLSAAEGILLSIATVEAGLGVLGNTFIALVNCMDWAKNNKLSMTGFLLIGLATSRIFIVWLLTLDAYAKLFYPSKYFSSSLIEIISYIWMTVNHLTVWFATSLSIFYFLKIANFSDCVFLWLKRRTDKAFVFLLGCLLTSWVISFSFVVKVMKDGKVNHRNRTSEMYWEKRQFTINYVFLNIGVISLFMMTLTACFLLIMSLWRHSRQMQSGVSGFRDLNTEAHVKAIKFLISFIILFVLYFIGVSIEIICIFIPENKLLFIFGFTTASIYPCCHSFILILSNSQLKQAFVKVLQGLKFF
Experimental: as §1, §4

[6] = G-protein Gα16gustducin44, ligand 2.5 mM

fluorescent signal with Gα16-gustducin 44, times stronger than reference chimeric G-protein Gα16-z44 (human TAS2R16): about 3 times | fluorescent signal with Gα16-gustducin 44, times stronger than wild-type Gα16 (human TAS2R16): about 7 times | fluorescent signal (in words) (human TAS2R16): robust fluorescent signal | receptor activation following ligand stimulation, Gα16gustducin44 cells compared with Gα16 cells (in words) (human TAS2R16; hTAS2R16): greater degree of receptor activation | increase in mean fluorescence over baseline following ligand addition (human TAS2R16; G-protein Gα16): 3494 RFUs | increase in mean fluorescence over baseline following ligand addition (human TAS2R16; G-protein Gα16gustducin44): 23821 RFUs | increase in mean fluorescence over baseline following ligand addition (human TAS2R16; G-protein Gα16z44): 8296 RFUs
Compound: OC[C@H]1O[C@@H](Oc2ccccc2)[C@H](O)[C@@H](O)[C@@H]1O [phenyl-β-D-glucopyranoside]
increase in mean fluorescence over baseline following ligand addition ([1]; G-protein Gα16, ligand 5 mM): 1024 RFUs | increase in mean fluorescence over baseline following ligand addition ([1]; G-protein Gα16gustducin44, ligand 5 mM): 2162 RFUs | increase in mean fluorescence over baseline following ligand addition ([1]; G-protein Gα16z44, ligand 5 mM): 1541 RFUs

Compound: NC(=S)Nc1ccccc1 [phenylthiocarbamide]
increase in mean fluorescence over baseline following ligand addition [2]: 3422 RFUs | increase in mean fluorescence over baseline following ligand addition (human TAS2R38; G-protein + human TAS2R38 (with tetracycline), Gα16gustducin44): 8989 RFUs | fluorescence signal (in words) (human TAS2R38): robust fluorescence signal

increase in mean fluorescence over baseline following ligand addition (human TAS1R2/TAS1R3; G-protein Gα15, ligand 2.5 mM): 1300 RFUs | increase in mean fluorescence over baseline following ligand addition (human TAS1R2/TAS1R3; [6]): 4617 RFUs | fluorescence signal with Gα16-gustducin 44, times stronger than wild-type Gα16 (human TAS1R2/TAS1R3): 2 times | fluorescence signal (in words) (human TAS1R2/TAS1R3): robust flurorescence signal
Compound: OC[C@H]1O[C@H](O[C@]2(CCl)O[C@H](CCl)[C@@H](O)[C@@H]2O)[C@H](O)[C@@H](O)[C@H]1Cl [sucralose]
increase in mean fluorescence over baseline following ligand addition ([3]; G-protein Gα15, ligand 2.5 mM): 643 RFUs | increase in mean fluorescence over baseline following ligand addition [3, 6]: 1370 RFUs

Compound: O=C1C[C@@H]2OCC=C3CN4CC[C@]56c7ccccc7N1[C@H]5[C@H]2[C@H]3C[C@H]46 [strychnine]
increase in mean fluorescence over baseline following ligand addition [4]: 13238 RFUs

fluorescent signal with Gα16-gustducin 44, times stronger than reference chimeric G-protein Gα16-z44 (human TAS2R16): about 3 times | fluorescent signal with Gα16-gustducin 44, times stronger than wild-type Gα16 (human TAS2R16): about 7 times | fluorescent signal (in words) (human TAS2R16): robust fluorescent signal
Compound: OCc1ccccc1O[C@@H]1O[C@H](CO)[C@@H](O)[C@H](O)[C@H]1O [salicin]

Compound: C[C@@H]1C[C@@H]([C@H](O)CC2CC(=O)NC(=O)C2)C(=O)[C@@H](C)C1 [cycloheximide]
increase in mean fluorescence over baseline following ligand addition ([5]; G-protein Gα16, ligand 10 μM): 1705 RFUs | increase in mean fluorescence over baseline following ligand addition ([5]; G-protein Gα16gustducin44, ligand 10 μM): 3989 RFUs | fluorescence signal (in words) (mouse T2R5; HEK293T cells, mouse T2R5, Gα16-gustducin 44, ligand 10 uM): robust flurorescence signal | fluorescence signal with Gα16-gustducin 44, times stronger than wild-type Gα16 (mouse T2R5; HEK293T cells, mouse T2R5, ligand 10 uM): 5 times | increase in mean fluorescence over baseline following ligand addition (mouse T2R5; mouse T2R5, G-protein Gα16): 2569 RFUs | increase in mean fluorescence over baseline following ligand addition (mouse T2R5; mouse T2R5, G-protein Gα16gustducin44): 10407 RFUs

fluorescence signal (in words) (human TAS2R38): robust response
Compound: CCCc1cc(=O)[nH]c(=S)[nH]1 [propythiouracil]

fluorescence signal with Gα16-gustducin 44, times stronger than wild-type Gα16 (human TAS1R2/TAS1R3): 2 times | fluorescence signal (in words) (human TAS1R2/TAS1R3): robust flurorescence signal
Compound: COC(=O)[C@H](Cc1ccccc1)NC(=O)[C@@H](N)CC(=O)O [aspartame] (H-Asp-Phe-OMe)

fluorescence signal with Gα16-gustducin 44, times stronger than wild-type Gα16 (human TAS1R2/TAS1R3): 2 times | fluorescence signal (in words) (human TAS1R2/TAS1R3): robust flurorescence signal
Compound: CC1=CC(=O)[N-]S(=O)(=O)O1.[K+] [acesulfame K]
